Measurements from patent US11149028B2, “Methods for treating melanoma using small molecules” (NOVA SOUTHEASTERN UNIVERSITY, priority 2016, dated 2021).
Entries after “also recorded” stand apart in the source; their conditions may differ. Read-outs that look alike come from different tables or passages of the source.

Assays:
calpain in WM266-4 cells = assay: Calpain activity assay (Calpain-Glo); type: cell-based, human; conditions: 100 μM; 30 min, 4 and 24 h
Protocol: The Calpain-Glo Protease Assay (Promega cat #) was used to measure the calpain enzyme activity in live cells, according to the manufacturer's instructions. 1,250 of WM-266-4 cells were plated in 384-well white TC-treated plates in 5 μL of serum-free EMEM media. The cells were incubated overnight at 37° C., 5% CO2 and 95% relative humidity and 5 μL of test compounds 2155-14, (100 μM), calpain inhibitor III and PD151746 (25 μM) were added alone or in combination and incubated at 37° C., 5% CO2, and 95% relative humidity for 0.5, 4, and 24 h. After incubation, 10 μL, of a freshly prepared dilution of the Calpain-Glo Reagent stock solution (consisting of Suc-LLVY-Glo™ substrate, Calpain-Glo™ buffer, Luciferin Detection Reagent, and CaCl2) was added to cells at above mentioned times and luminescence was recorded with a Neo 2 microplate reader (Biotek Inc). All experiments were performed in triplicate and the values provided are the calculated average of at least three independent experiments.

DDX1 = molecular target: T1, DDX1 (Homo sapiens, UniProt Q92499); assay: DARTS with western blot; type: binding; conditions: WM266-4 lysates
T1 construct: WM-266-4 and M14 cells were sonicated in RIPA lysis buffer; endogenous in cells; host or cells: WM266-4 (and M14) melanoma cells and lysates
Source text: (FIG. 26A, DARTS workflow). Proteins that bind the lead present as bands of differential intensity on SDS-PAGE and are identified using proteomic techniques. […] Bands from non-treated control and sample treated with 2155-14 were excised, trypsinized, and run on LC/MS/MS. […] In addition to lamin A/C, lamin B2, transketolase (TKT), and cytoskeleton-associated protein 4 (CKAP4) were also identified as possible targets (Table 7 shown in FIG. 27). The exclusive unique peptide counts were too close to make the identification of one over the other with confidence.
WM266-4 melanoma cell lysates were prepared using a routine protocol with commercially available M-PER buffer supplemented with protease and phosphatase inhibitors. Lysates were split into control and compound test portions, and DMSO and 2155-14 were added to the respective lysate portions and incubated at RT for 1 h to allow for 2155-14 binding to its target(s). Pronase dilutions (1:100. 1:300, 1:1000. 1:3000 and 1:10000, Roche #10165921001) were prepared from 10 mg/mL stock. Lysates were split into 5 aliquots, and pronase dilutions were added to lysate aliquots and incubated at RT for 30 min. […]
Each sample was analyzed by liquid-chromatography-tandem MS (LC-MS/MS) using an EASY-nLC 1000 system coupled to a Q Exactive mass spectrometer (Thermo Fisher Scientific). […]

M14 cells = tested on: M14 cells
Protocol: ApoTox-Glo™ Triplex Assay which allows one to simultaneously assess the effect of small molecules on cell viability, toxicity, caspase activity, and cell cycle all in the same well (Niles, A. L.; Moravec, R. A.; Riss, T. L. In vitro viability and cytotoxicity testing and same-well multi-parametric combinations for high throughput screening. Curr Chem Genomics 2009, 3, 33-41) was utilized. First, a mixture of 2 fluorogenic substrates was added to cells. GF-AFC substrate is cell-permeant and non-lytic to cells, allowing the measurement of active protease inside live cells. The second substrate (bis-AAF-R110 Substrate) is not cell-permeable and is only cleaved when proteases are released from cells due to the loss of membrane integrity typical of cell death. This step generates an inversely correlated measurement of cell viability and toxicity.
The second addition is luminogenic DEVD-peptide substrate for caspase-3/7 and Ultra-Glo™ Recombinant Thermostable Luciferase. Caspase-3/7 cleavage of the substrate generates a luminescent signal which correlates with caspase-3/7 activation as a key indicator of apoptosis. As markers for cytotoxicity and apoptosis are transient, the assay was conducted in time course format with time points at 4, 24, 48, and 72 h.
M14 #5 cells were plated in 384-well format at a density of 1,250 cells in 5 μL of serum-free DMEM media and incubated at 37° C. in 5% CO2 for 4 h. Control and test compounds were serially diluted in a ratio of 1:3 and added to wells in 4 μL. […] Plates were incubated at 37° C. in 5% CO2 for 4, 24, 48, and 72 h. At the end of each time point Viability/Cytotoxicity™ Reagent was prepared containing 400 μM glycylphenylalanyl-aminofluorocoumarin (GF-AFC) substrate (cleavable by live cell proteases) and 400 μM bis-alanylalanyl-phenylalanyl-rhodamine 110 (bis-AAF-R110) substrate (cleavable by dead cell proteases). 4 μL of the Viability/Cytotoxicity™ Reagent was used per well. The plate was incubated for 30 min at 37° C. Fluorescence was read at λEx=400 nm and λEm=505 nm for GF-AFC and λEx=485 nm and λEm=520 nm for bis-AAF-R110 on the BioTek Synergy™ 4 Multi-Mode Microplate Reader. Caspase-Glo® 3/7 Reagent was then added in 12 μL volume. The plate was incubated for 30 min at room temperature and luminescence was measured on the BioTek Synergy™ 4 Multi-Mode Microplate Reader.

[1] = time course 4-72 h, time stated at the place

T1 sequence (Q92499 whole entry): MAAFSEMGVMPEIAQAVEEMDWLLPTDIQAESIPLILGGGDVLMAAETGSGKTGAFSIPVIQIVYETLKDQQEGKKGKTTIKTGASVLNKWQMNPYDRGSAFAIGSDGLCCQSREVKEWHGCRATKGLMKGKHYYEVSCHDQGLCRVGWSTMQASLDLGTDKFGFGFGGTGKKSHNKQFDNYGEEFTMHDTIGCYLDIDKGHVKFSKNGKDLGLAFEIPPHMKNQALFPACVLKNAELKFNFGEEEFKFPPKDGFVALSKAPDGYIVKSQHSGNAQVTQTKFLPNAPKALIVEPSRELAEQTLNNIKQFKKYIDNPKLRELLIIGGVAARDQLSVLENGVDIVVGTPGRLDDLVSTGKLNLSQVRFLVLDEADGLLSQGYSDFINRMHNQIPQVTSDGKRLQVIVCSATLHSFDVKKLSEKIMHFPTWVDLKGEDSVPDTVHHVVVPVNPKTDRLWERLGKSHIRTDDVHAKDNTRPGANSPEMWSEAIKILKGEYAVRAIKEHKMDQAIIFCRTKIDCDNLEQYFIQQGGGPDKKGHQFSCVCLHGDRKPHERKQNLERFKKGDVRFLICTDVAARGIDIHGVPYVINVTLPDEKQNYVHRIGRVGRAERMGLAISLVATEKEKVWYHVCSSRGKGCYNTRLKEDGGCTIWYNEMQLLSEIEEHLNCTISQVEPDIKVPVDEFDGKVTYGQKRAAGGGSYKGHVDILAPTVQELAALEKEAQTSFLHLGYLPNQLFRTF

O=C1NC[C@H](Cc2ccccc2)N(C[C@@H]2CCCN2C[C@@H](CC2CCCCC2)N2C[C@H](Cc3ccc(O)cc3)N(CCc3ccccc3)C(=O)C2=O)C1=O [Compound 2155-14, (S)-1((R)-1((S)-2-(((S)-6-benzyl-2,3-dioxopiperazin-1-yl)methyl)pyrrolidin-1-yl)-3-cyclohexylpropan-2-yl)-5-(4-hydroxybenzyl)-4-phenethylpiperazine-2,3-dione]
calpain activity (calpain in WM266-4 cells): Calpain activity at 30 min was at the baseline level; also recorded: time-dependent increase of activity at 4 and 24 h | protection of DDX1 from pronase (DDX1): protects these proteins from pronase proteolysis | caspase signal (M14 cells; 24 h): 550 % of untreated control | caspase signal (M14 cells; 48 h): 400 % of untreated control | ApoTox caspase-3/7 activity (M14 cells; [1]): no markers for apoptosis and cytotoxicity; also recorded: The 24 h time point was characterized by a significant spike in caspase activity; also recorded: By 72 h the caspase signal has decayed | ApoTox viability (live cell protease) (M14 cells; [1]): no effect on cell viability as measured by live cell protease at the 4 h time point; also recorded: dose dependent response at 48 h
